Test system: Rats
Assay: Evaluation of Wake Promoting Activity in Rats (EEG/EMG sleep/wake scoring)
Type: in vivo, Wistar rats
Conditions: i.p. route, 100 mg/kg; for Mean AUC 0-3h, Test compound: n = 4 rats per test compound, group mean, compared with vehicle group (8 rats); for wakefulness compared to the vehicle-treated control groups: rats, p< 0.05 versus vehicle
Experimental: The methodology utilized for evaluating wake promoting activity of test compounds is based on that described by Edgar and Seidel, Journal of Pharmacology and Experimental Therapeutics, 283:757-769, 1997, and incorporated herein in its entirety by reference.
Animal Surgery. Adult, male Wistar rats (275-320g from Charles River Laboratories, Wilmington, MA) were anesthetized (Nembutal, 45 mg/kg, ip.) and surgically prepared with implants for recording of chronic EEG (encephalographic) and EMG (electromyographic) recording. The EEG implants were made from commercially available components (Plastics One, Roanoke, VA). EEG signals were recorded from stainless steel screw electrodes: 2 frontal (+3.0 mm AP from bregma, ±2.0 mm ML), and 2 occipital (-4.0 mm AP from bregma, ±2.0 mm ML). Two Teflon-coated stainless steel wires were positioned under the nuchal trapezoid muscles for EMG recording. All electrode leads were inserted into a connector pedestal and the pedestal affixed to the skull by application dental acrylic. Antibiotic was administered post surgically and antibiotic cream was applied to the wound edges to prevent infection. At least one week elapsed between surgery and recording.
Recording environment. Postsurgically, rats were housed in pairs in an isolated room. Food and water were available ad libitum, ambient temperature was 21°C, and humidity was 55%. At least 24 hrs prior to recording, they were placed in Nalgene containers (31 x 31 x 31 cm) with a wire-grid top, and entry to the room was prohibited during the day of recording except for dosing. The containers were placed on a rack with two shelves, 4 containers per shelf. Fluorescent overhead room lights were set to a 24 hr. light/dark cycle (on at 7 AM, off at 7 PM). Light levels inside the containers were 38 and 25 lux for the top and bottom shelves respectively. Background white-noise (68db inside the containers) was present in the room to mask ambient sounds.
Data acquisition. EEG and EMG signals were led via cables to a commutator (Plastics One) and then to pre-amplifiers (model 1700, A-M Systems, Carlsborg, WA). EEG and EMG signals were amplified (10K and 1K respectively) and bandpass filtered between 0.3 and 500 Hz for EEG and between 10 and 500 Hz for EMG. These signals were digitized at 128 samples per second using ICELUS sleep research software (M. Opp, U. Texas; see Opp, Physiology and Behavior 63:67-74, 1998, and Imeri, Mancia, and Opp, Neuroscience 92:745-749, 1999, incorporated by reference herein in their entirety) running under Labview 5.1 software and data acquisition hardware (PCI-MIO-16E-4; National Instruments, Austin, TX). On the day of dosing, data was recorded for 6 to 10 hours beginning at 11 AM.
Drug administration and study design. Compounds were evaluated on groups of from 4 to 8 rats carried out over one or two separate test sessions. Each animal was tested with a different compound or vehicle for up to 10 weeks with at least 7 days between successive tests. A vehicle group was included in all experiments, and each animal received vehicle every 4th test. Test compounds were suspended in sterile 0.25% methylcellulose (pH=6.2; Upjohn Co., Kalamazoo, MI) at […]. Although compounds can be administered at dosages greater than 100 mg/kg and are expected to be active under the selection criteria of data analysis, unless otherwise noted, compounds were administered at a single dose of 100 mg/kg. Dosing was carried out at noon, while the rats were predominantly asleep. Each rat was lifted out of its container, given an intraperitoneal injection in a volume of 5 mL/kg, and replaced. Dosing required approximately 30 sec per rat.
Sleep / wake scoring. Sleep and wake activity were determined manually using ICELUS software. […]

Compound	Mean AUC 0-3h, Test compound	wakefulness compared to the vehicle-treated control groups
O=C(C[S+]([O-])Cc1cccc2c1oc1ccccc12)N1CCNCC1 (stereo not drawn) [Example 99]	129.1 % of waiking time x hr	significantly greated wakefulness
CC(C)(C)OC(=O)N1CCN(C(=O)CSCc2ccc3oc4ccc(F)cc4c3c2)CC1 [Example 26, 4-[2-(8-fluorodibenzofuran-2-yl-methylsulfanyl)acetyl]-piperazine-1-carboxylic acid tret-butyl ester]	132.0 % of waiking time x hr	significantly greated wakefulness
O=C(C[S+]([O-])Cc1cccc2c1-c1ccccc1C2)N1CCNCC1 (stereo not drawn) [Example 130]	149.2 % of waiking time x hr	significantly greated wakefulness

From patent EP1589016A1, “Thio-substituted tricyclic and bicyclic aromatic methanesulfinyl derivatives” (CEPHALON FRANCE, priority 2004, dated 2005)
